The nature of this assay: Displacement of [3H]naltrindole from Opioid receptor delta 1 of guinea pig brain membranes.
Usually Ki stands for the dissociation constant of the complex between target and ligand, obtained from inhibition or displacement. The compound `C[C@H]1C2Cc3ccc(C(=O)O)cc3[C@@]1(C)CCN2CC1CC1` [(6S,11R)-3-Cyclopropylmethyl-6,11-dimethyl-1,2,3,4,5,6-hexahydro-2,6-methano-benzo[d]azocine-8-carboxylic acid] came in with a Ki of 320 nM.

Compound `CNC(=O)c1ccc2c(c1)[C@@]1(C)CCN(CC3CC3)C(C2)[C@@H]1C` [(6S,11R)-3-Cyclopropylmethyl-6,11-dimethyl-1,2,3,4,5,6-hexahydro-2,6-methano-benzo[d]azocine-8-carboxylic acid methylamide] returned a Ki of 63 nM.

Consider `C[C@H]1C2Cc3ccc(C(=O)Nc4ccccc4)cc3[C@@]1(C)CCN2CC1CC1` [3-cyclopropylmethyl-6,11-dimethyl-1,2,3,4,5,6-hexahydro-2,6-methano-benzo[d]azocine-8-carboxylic acid phenylamide], for which the affinity, expressed as Ki, was 1400 nM.

`COC(=O)c1ccc2c(c1)[C@@]1(C)CCN(CC3CC3)C(C2)[C@@H]1C` [(6S,11R)-3-Cyclopropylmethyl-6,11-dimethyl-1,2,3,4,5,6-hexahydro-2,6-methano-benzo[d]azocine-8-carboxylic acid methyl ester] had a Ki of 59 nM.

Regarding `C[C@@H]1[C@@H]2Cc3ccc(C(N)=O)cc3[C@]1(C)CCN2CC1CC1` [(6S,11R)-3-Cyclopropylmethyl-6,11-dimethyl-1,2,3,4,5,6-hexahydro-2,6-methano-benzo[d]azocine-8-carboxylic acid amide], the affinity corresponds to a Ki of 570 nM.

`C[C@H]1C2Cc3ccc(C(=O)N(C)C)cc3[C@@]1(C)CCN2CC1CC1` [(6S,11R)-3-Cyclopropylmethyl-6,11-dimethyl-1,2,3,4,5,6-hexahydro-2,6-methano-benzo[d]azocine-8-carboxylic acid dimethylamide]: the Ki was over 35000 nM.

On to `C[C@H]1C2Cc3ccc(C#N)cc3[C@@]1(C)CCN2CC1CC1` [(6S,11R)-3-Cyclopropylmethyl-6,11-dimethyl-1,2,3,4,5,6-hexahydro-2,6-methano-benzo[d]azocine-8-carbonitrile], for which the Ki was found to be 2700 nM.

For the compound `C[C@H]1[C@H]2Cc3ccc(C(N)=O)cc3[C@@]1(C)CCN2CC1CC1` [(6S,11R)-3-Cyclopropylmethyl-6,11-dimethyl-1,2,3,4,5,6-hexahydro-2,6-methano-benzo[d]azocine-8-carboxylic acid amide], the Ki was 2.6 nM.
